Experimental data taken from PMC6222672, “Pharmacokinetic and Metabolism Studies of 12-Riboside-Pseudoginsengenin DQ by UPLC-MS/MS and UPLC-QTOF-MS^E” (Molecules : A Journal of Synthetic Chemistry and Natural …, 2018).
Entries after “also recorded” stand apart in the source; their conditions may differ. Where two headings read alike, the source gives them in different places.

What was measured:
SPC-A-1 cells = test: MTT cell viability test, SPC-A-1 cells; assay type: cell-based; conditions: 1-200 μM, 44 h
Excerpt: (§1) Antitumor activity test of RPDQ in vitro by using S180, SPC-A-1 and A549 cells
(§2) Since the startmaterial for the semi-synthesis of 12-Riboside-pseudoginsengenin DQ (RPDQ) was pseudoginsengenin DQ (PDQ), the antitumor activities of RPDQ […]
(§3) and PDQ were both tested.
(§4) The SPC-A-1 and S180 tumor cell lines were purchased from Wuhan Procell Life Science & Technology Co,.Ltd. A549 tumor cell lines were purchased from iCell Bioscience Inc (Shanghai) Biological Co., Ltd.
(§5) 2. Experimental procedure
(§6) S180 cells (1 × 10^5 cells/mL) were seeded into a 96-well plate. After 24 h, pretreated with various concentrations of RPDQ or PDQ (1-200 μM) for 44 h at 37℃, and the cells were treated with MTT for 4 h. The formazan crystal product in the cells were dissolved with acid isopropanol. The absorbance was measured at 570 nm with a […]
(§7) SPC-A-1/A549 cells(1×10^5 cells/mL) were seeded into a 96-well plate. After 24 h, pretreated with various concentrations of RPDQ or PDQ (1-200 μM) for 44 h at 37℃ , and the cells were treated with MTT for 4 h. […] The absorbance was measured at 490 nm with a […]
(§8) Cell viability was calculated by the following formula: Cell viability (%)= 1-{(ODcontrolgroup-ODtreatedgroup)/ODcontrol group×100%}.
(§9) All data were processed by statistical software SPSS 17.0. The data were expressed as Mean ± Standard Deviation. The differences between groups were analyzed by one-way analysis of variance. […]

A549 cells = test: MTT cell viability test, A549 cells; assay type: cell-based; conditions: 1-200 μM, 44 h
Excerpt: as §1, §2, §3, §4, §5, §6, §7, §8, §9

[1] = assay type: in vitro ADME; conditions: rat
Experimental: RPDQ and 20R-panaxadiol stock methanol solutions (1.00 mg/mL) were all prepared with the reference compounds, respectively. Firstly, blank rat plasma was prepared. The blood samples were collected immediately from the abdominal aorta and incubated at 37 °C for 30 min. The plasma was separated by centrifugation at 4000 rpm for 15 min, and was frozen at −20 °C until analysis. By spiking the dilute solutions with blank rat plasma, calibration curves were plotted to produce the points equivalent to 5, 10, 25, 50, 100, 300, 500, and 1000 ng/mL for RPDQ. […] All the QC and calibration standards samples were prepared freshly before analysis. The specificity, linearity, LLOQ, precision and accuracy, extraction recovery, matrix effect, diluted reliability, and stability of the method were validated by following a non-clinical drug pharmacokinetic study technical guideline (China Food And Drug Administration 2014) and the Bioanalytical Method Validation Guideline (Chinese Pharmacopoeia 2015, Vol. 4). Specificity was assessed by comparing blank plasma samples, plasma was spiked with RPDQ and 20R-panaxadiol, and plasma samples were collected after administration. Linearity was analyzed through weighted regression (1/x^2) of peak area ratios (y) of RPDQ to 20R-panaxadiol versus nominal concentration (x) in plasma. […] The intra- and inter-day precision and accuracy were evaluated with the analysis of six replicate QC samples on three consecutive days, respectively. The extraction recovery and matrix effect at three QC concentrations were assayed. By comparing peak areas of RPDQ and 20R-panaxadiol in extracted QC samples with those in post-extracted blank plasma samples, the recoveries were calculated. Moreover, by comparing the peak area of samples spiked after extraction with that of the neat solution’s equivalent concentration, the matrix effect was then evaluated. Stability was evaluated by analyzing replicate QC samples, which were stored at −20 °C for two weeks at room temperature for 4 h, and experienced three freeze/thaw cycles (from −20 °C to room temperature) on consecutive days. The stabilities of RPDQ in stock solutions at 15 °C and stored in plastic autosampler vials for 16 h at 10 °C were also assessed. Five-fold higher concentrations of QC were achieved by adding moderate RPDQ to blank plasma. The samples were then diluted and analyzed with undiluted calibration standards. The accuracy and precision were within acceptable limits (± 15%).

S180 cells = test: MTT cell viability test, S180 cells; assay type: cell-based; conditions: 1-200 μM, 44 h
Excerpt: as §1, §2, §3, §4, §5, §6, §7, §8, §9

## CC(C)(O)[C@@H]1CC[C@@](C)([C@H]2CC[C@]3(C)[C@@H]2[C@H](O[C@@H]2O[C@H](CO)[C@@H](O)[C@H]2O)C[C@@H]2[C@@]4(C)CC[C@H](O)C(C)(C)[C@@H]4CC[C@]23C)O1 [RPDQ, 20S, 24S-12-O-β-D-ribofuranosyl-dammar-20, 24-epoxy-3β, 12β, 25-triol]
SPC-A-1 cells
  anticancer / anti-proliferation effect: good anti-proliferation effects; also recorded: significant anticancer activity
A549 cells
  anticancer / anti-proliferation effect: good anti-proliferation effects; also recorded: significant anticancer activity
[1]; 15 ng/mL
  Mean concentration: 14.96 ± 0.58 ng/mL
[1]; 200 ng/mL
  Mean concentration: 188.7 ± 16.57 ng/mL
[1]; 800 ng/mL
  Mean concentration: 785.21 ± 19.19 ng/mL
[1]; 3 freeze-thaw cycles, 800 ng/mL
  Accuracy: −1.85%
[1]; 3 freeze/thaw cycles, 15 ng/mL
  Accuracy: −0.03%
[1]; 3 freeze/thaw cycles, 200 ng/mL
  Accuracy: −5.65%
[1]; 4 h, 15 ng/mL
  Accuracy: −1.00%
  Mean concentration: 14.85 ± 0.72 ng/mL
[1]; 4 h, 200 ng/mL
  Accuracy: −5.94%
  Mean concentration: 188.12 ± 14.00 ng/mL
[1]; 4 h, 800 ng/mL
  Accuracy: −3.25%
  Mean concentration: 773.99 ± 26.01 ng/mL
[1]; 16 h, 15 ng/mL
  Accuracy: 2.2%
  Mean concentration: 15.33 ± 1.61 ng/mL
[1]; 16 h, 200 ng/mL
  Accuracy: −6.52%
  Mean concentration: 186.96 ± 13.41 ng/mL
[1]; 16 h, 800 ng/mL
  Accuracy: 2.03%
  Mean concentration: 816.23 ± 15.82 ng/mL
[1]; 14 d, 15 ng/mL
  Accuracy: 2.74%
  Mean concentration: 15.41 ± 1.47 ng/mL
[1]; 14 d, 200 ng/mL
  Accuracy: −10.47%
  Mean concentration: 179.07 ± 14.73 ng/mL
[1]; 14 d, 800 ng/mL
  Accuracy: −1.71%
  Mean concentration: 786.32 ± 19.88 ng/mL
S180 cells
  anticancer / anti-proliferation effect: good anti-proliferation effects; also recorded: significant anticancer activity
